In the test the target is T1, Human PD-L1/PD-1 (Homo sapiens, UniProt Q9NZQ7).
T1 construct: TVMV protease cleavage site (C); made in house; host or cells: HEK293T cells
In words: HTRF Human PD-L1/PD-1 binding assay (PD-1-Ig/PD-L1-His). The settings on record: PD-L1-His 10 nM, PD-1-Ig 20 nM. Summed up: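 HTRF competition using HEK293T-expressed human PD-1(25-167)-Ig at 20 nM and PD-L1(18-239)-His at 10 nM, compound incubated first with PD-L1 for 15 min, then with PD-1 for 15 min. Signal read as 665/620 nm ratio 30 min after adding Eu anti-Ig and APC anti-His antibodies.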
In general terms: Time-resolved FRET reads energy transfer from a long-lived donor to a nearby acceptor.

Setting [1] is: class symbol, read-out: HTRF Human PD-L1/PD-1 Binding Assay IC50 Range.

The structures appear in SMILES notation. Where two headings read alike, the source gives them in different places. *1 amine or outer side, *2 acyl side, *3 side chain or, on linkers, in order; H or OH if unused. Where a SMILES comes first, the peptide text is derived from it. Bridges are numbered along the chain shown (N, C = ends). [ ]: non-standard residue; d: D form. Phe(3,4,5-F3) = N[C@@H](Cc1cc(F)c(F)c(F)c1)C(=O)O; d(cisHyp) = O=C(O)[C@H]1C[C@@H](O)CN1; NMeF = CN[C@@H](Cc1ccccc1)C(=O)O; X1 = O=C([C@H]1COCCN1[*:1])[*:2]; dPip(4-aza) = O=C(O)[C@H]1CNCCN1; NMeE = CN[C@@H](CCC(=O)O)C(=O)O; NMeNle = CCCC[C@H](NC)C(=O)O; hSer = N[C@@H](CCO)C(=O)O; Orn = NCCC[C@H](N)C(=O)O

T1 sequence (Q9NZQ7 with tags, fused parts or gaps): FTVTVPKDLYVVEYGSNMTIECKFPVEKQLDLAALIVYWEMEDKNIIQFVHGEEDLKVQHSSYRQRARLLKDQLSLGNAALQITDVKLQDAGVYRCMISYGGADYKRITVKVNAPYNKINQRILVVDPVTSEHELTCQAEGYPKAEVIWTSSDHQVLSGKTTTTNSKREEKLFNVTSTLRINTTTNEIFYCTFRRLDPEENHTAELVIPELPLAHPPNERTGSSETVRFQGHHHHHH

In the case of `CCCC[C@H]1C(=O)N2C[C@H](O)C[C@@H]2C(=O)N[C@@H](CC(=O)O)C(=O)N[C@@H](C(C)C)C(=O)N(C)[C@@H](Cc2ccccc2)C(=O)N[C@@H](CCC(=O)O)C(=O)N2CCNC[C@@H]2C(=O)N[C@@H](Cc2c[nH]c3ccccc23)C(=O)N[C@@H](Cc2ccc(O)cc2)C(=O)N[C@@H](CCO)C(=O)N[C@H](C(=O)NCC(N)=O)CSCC(=O)N[C@@H](Cc2cc(F)c(F)c(F)c2)C(=O)N(C)[C@@H](Cc2ccccc2)C(=O)N1C` [Example 10165] ({CH2CO}-[Phe(3,4,5-F3)][NMeF][NMeNle][d(cisHyp)]DV[NMeF]E[dPip(4-aza)]WY[hSer]CG-NH2; thioether N-13), the IC50 under setting [1] was 1 to 9.9 nM.

For `CCCC[C@H]1C(=O)N2C[C@H](O)C[C@@H]2C(=O)N[C@@H](CC(=O)O)C(=O)N[C@@H](C(C)C)C(=O)N(C)[C@@H](Cc2ccccc2)C(=O)N[C@@H](CCC(=O)O)C(=O)N2CCNC[C@@H]2C(=O)N[C@@H](Cc2c[nH]c3ccccc23)C(=O)N[C@@H](Cc2ccc(O)cc2)C(=O)N[C@@H](CCCN)C(=O)N[C@H](C(=O)NCC(N)=O)CSCC(=O)N[C@@H](Cc2cc(F)c(F)c(F)c2)C(=O)N(C)[C@@H](Cc2ccccc2)C(=O)N1C` [Example 10166] ({CH2CO}-[Phe(3,4,5-F3)][NMeF][NMeNle][d(cisHyp)]DV[NMeF]E[dPip(4-aza)]WY[Orn]CG-NH2; thioether N-13), the IC50 under setting [1] fell in the range of 1 to 9.9 nM. The same measure, in the same setting: then `CCCC[C@H]1C(=O)N2CCNC[C@@H]2C(=O)N[C@@H](CC(=O)O)C(=O)N[C@@H](C(C)C)C(=O)N(C)[C@@H](Cc2ccccc2)C(=O)N[C@@H](CCC(=O)O)C(=O)N2C[C@H](O)C[C@@H]2C(=O)N[C@@H](Cc2c[nH]c3ccccc23)C(=O)N[C@@H](Cc2ccc(O)cc2)C(=O)N[C@@H](CC(C)C)C(=O)N[C@H](C(=O)NCC(N)=O)CSCC(=O)N[C@@H](Cc2cc(F)c(F)c(F)c2)C(=O)N(C)[C@@H](Cc2ccccc2)C(=O)N1C` [Example 10167] ({CH2CO}-[Phe(3,4,5-F3)][NMeF][NMeNle][dPip(4-aza)]DV[NMeF]E[d(cisHyp)]WYLCG-NH2; thioether N-13), with 1 to 9.9 nM; and `CCCC[C@H]1C(=O)N2C[C@H](O)C[C@@H]2C(=O)N[C@@H](CC(=O)O)C(=O)N[C@@H](C(C)C)C(=O)N(C)[C@@H](Cc2ccccc2)C(=O)N[C@@H](Cc2ccc(O)cc2)C(=O)N2CCNC[C@@H]2C(=O)N[C@@H](Cc2c[nH]c3ccccc23)C(=O)N[C@@H](Cc2ccc(O)cc2)C(=O)N[C@@H](CC(C)C)C(=O)N[C@H](C(=O)NCC(N)=O)CSCC(=O)N[C@@H](Cc2cc(F)c(F)c(F)c2)C(=O)N(C)[C@@H](Cc2ccccc2)C(=O)N1C` [Example 10168] ({CH2CO}-[Phe(3,4,5-F3)][NMeF][NMeNle][d(cisHyp)]DV[NMeF]Y[dPip(4-aza)]WYLCG-NH2; thioether N-13), with 1 to 9.9 nM. The same measure, in the same setting: then `CCCC[C@H]1C(=O)N2C[C@H](O)C[C@@H]2C(=O)N[C@@H](CC(=O)O)C(=O)N[C@@H](C(C)C)C(=O)N(C)[C@@H](Cc2ccccc2)C(=O)N[C@@H](CCCN)C(=O)N2CCNC[C@@H]2C(=O)N[C@@H](Cc2c[nH]c3ccccc23)C(=O)N[C@@H](Cc2ccc(O)cc2)C(=O)N[C@@H](CCO)C(=O)N[C@H](C(=O)NCC(N)=O)CSCC(=O)N[C@@H](Cc2cc(F)c(F)c(F)c2)C(=O)N(C)[C@@H](Cc2ccccc2)C(=O)N1C` [Example 10169] ({CH2CO}-[Phe(3,4,5-F3)][NMeF][NMeNle][d(cisHyp)]DV[NMeF][Orn][dPip(4-aza)]WY[hSer]CG-NH2; thioether N-13), with 1 to 9.9 nM.

On to `CCCC[C@H]1C(=O)N2CCC[C@@H]2C(=O)N[C@@H](CC(=O)O)C(=O)N[C@@H](C(C)C)C(=O)N(C)[C@@H](Cc2ccccc2)C(=O)N[C@@H](CC(=O)O)C(=O)N2CCC[C@@H]2C(=O)N[C@@H](Cc2c[nH]c3ccccc23)C(=O)N[C@@H](Cc2ccc(O)cc2)C(=O)N[C@@H](CCO)C(=O)N[C@H](C(=O)NCC(N)=O)CSCC(=O)N[C@@H](Cc2cc(F)c(F)c(F)c2)C(=O)N(C)[C@@H](Cc2ccccc2)C(=O)N1C` [Example 10170] ({CH2CO}-[Phe(3,4,5-F3)][NMeF][NMeNle][dP]DV[NMeF]D[dP]WY[hSer]CG-NH2; thioether N-13), for which, under setting [1], the IC50 fell in the range of 1 to 9.9 nM. The same measure, in the same setting: with `CCCC[C@H]1C(=O)N2CCC[C@@H]2C(=O)N[C@@H](CC(=O)O)C(=O)N[C@@H](C(C)C)C(=O)N(C)[C@@H](Cc2ccccc2)C(=O)N[C@@H](CC(=O)O)C(=O)N2CCC[C@@H]2C(=O)N[C@@H](Cc2c[nH]c3ccccc23)C(=O)N[C@@H](Cc2ccc(O)cc2)C(=O)N[C@@H](CCCCN)C(=O)N[C@H](C(=O)NCC(N)=O)CSCC(=O)N[C@@H](Cc2cc(F)c(F)c(F)c2)C(=O)N(C)[C@@H](Cc2ccccc2)C(=O)N1C` [Example 10171] ({CH2CO}-[Phe(3,4,5-F3)][NMeF][NMeNle][dP]DV[NMeF]D[dP]WYKCG-NH2; thioether N-13) the figure was 10 to 99.9 nM. Regarding `CCCC[C@H]1C(=O)N2CCC[C@@H]2C(=O)N[C@@H](CC(=O)O)C(=O)N[C@@H](C(C)C)C(=O)N(C)[C@@H](Cc2ccccc2)C(=O)N[C@@H](CC(=O)O)C(=O)N2C[C@H](O)C[C@@H]2C(=O)N[C@@H](Cc2c[nH]c3ccccc23)C(=O)N[C@@H](Cc2ccc(O)cc2)C(=O)N[C@@H](CCO)C(=O)N[C@H](C(=O)NCC(N)=O)CSCC(=O)N[C@@H](Cc2cc(F)c(F)c(F)c2)C(=O)N(C)[C@@H](Cc2ccccc2)C(=O)N1C` [Example 10172] ({CH2CO}-[Phe(3,4,5-F3)][NMeF][NMeNle][dP]DV[NMeF]D[d(cisHyp)]WY[hSer]CG-NH2; thioether N-13), the IC50 under setting [1] fell in the range of 10 to 99.9 nM. Still for that read-out and setting: then `CCCC[C@H]1C(=O)N2C[C@H](O)C[C@@H]2C(=O)N[C@@H](CC(=O)O)C(=O)N[C@@H](C(C)C)C(=O)N(C)[C@@H](Cc2ccccc2)C(=O)N[C@@H](CC(=O)O)C(=O)N2C[C@H](O)C[C@@H]2C(=O)N[C@@H](Cc2c[nH]c3ccccc23)C(=O)N[C@@H](Cc2ccc(O)cc2)C(=O)N[C@@H](CCO)C(=O)N[C@H](C(=O)NCC(N)=O)CSCC(=O)N[C@@H](Cc2cc(F)c(F)c(F)c2)C(=O)N(C)[C@@H](Cc2ccccc2)C(=O)N1C` [Example 10173] ({CH2CO}-[Phe(3,4,5-F3)][NMeF][NMeNle][d(cisHyp)]DV[NMeF]D[d(cisHyp)]WY[hSer]CG-NH2; thioether N-13), with 10 to 99.9 nM; and `CCCC[C@H]1C(=O)N2CCC[C@@H]2C(=O)N[C@@H](CC(=O)O)C(=O)N[C@@H](C(C)C)C(=O)N(C)[C@@H](Cc2ccccc2)C(=O)N[C@@H](CC(=O)O)C(=O)N2C[C@H](O)C[C@@H]2C(=O)N[C@@H](Cc2c[nH]c3ccccc23)C(=O)N[C@@H](Cc2ccc(O)cc2)C(=O)N[C@@H](CCCCN)C(=O)N[C@H](C(=O)NCC(N)=O)CSCC(=O)N[C@@H](Cc2cc(F)c(F)c(F)c2)C(=O)N(C)[C@@H](Cc2ccccc2)C(=O)N1C` [Example 10174] ({CH2CO}-[Phe(3,4,5-F3)][NMeF][NMeNle][dP]DV[NMeF]D[d(cisHyp)]WYKCG-NH2; thioether N-13), with 1 to 9.9 nM. On the same count and under the same terms, then `CCCC[C@H]1C(=O)N2CCC[C@@H]2C(=O)N[C@@H](CC(=O)O)C(=O)N[C@@H](C(C)C)C(=O)N(C)[C@@H](Cc2ccccc2)C(=O)N[C@@H](CCCN)C(=O)N2CCC[C@@H]2C(=O)N[C@@H](Cc2c[nH]c3ccccc23)C(=O)N[C@@H](Cc2ccc(O)cc2)C(=O)N[C@@H](CCO)C(=O)N[C@H](C(=O)NCC(N)=O)CSCC(=O)N[C@@H](Cc2cc(F)c(F)c(F)c2)C(=O)N(C)[C@@H](Cc2ccccc2)C(=O)N1C` [Example 10175] ({CH2CO}-[Phe(3,4,5-F3)][NMeF][NMeNle][dP]DV[NMeF][Orn][dP]WY[hSer]CG-NH2; thioether N-13), with 1 to 9.9 nM. In the case of `CC(C)C[C@@H]1NC(=O)[C@H](Cc2ccc(O)cc2)NC(=O)[C@H](Cc2c[nH]c3ccccc23)NC(=O)[C@H]2COCCN2C(=O)[C@H](Cc2ccc(O)cc2)NC(=O)[C@H](Cc2ccccc2)N(C)C(=O)[C@H](C(C)C)NC(=O)[C@H](CC(=O)O)NC(=O)[C@H]2C[C@@H](O)CN2C(=O)[C@H](CCC(=O)O)N(C)C(=O)[C@H](Cc2ccccc2)N(C)C(=O)[C@H](Cc2cc(F)c(F)c(F)c2)NC(=O)CSC[C@@H](C(=O)NCC(N)=O)NC1=O` [Example 10176] ({CH2CO}-[Phe(3,4,5-F3)][NMeF][NMeE][d(cisHyp)]DV[NMeF]Y[X1]WYLCG-NH2; thioether N-13), the IC50 (read-out: HTRF Human PD-L1/PD-1 Binding Assay IC50) was 11 nM. Take `CCCC[C@H]1C(=O)N2C[C@H](O)C[C@@H]2C(=O)N[C@@H](CC(=O)O)C(=O)N[C@@H](C(C)C)C(=O)N(C)[C@@H](Cc2ccccc2)C(=O)N[C@@H](Cc2ccc(O)cc2)C(=O)N2CCOC[C@@H]2C(=O)N[C@@H](Cc2c[nH]c3ccccc23)C(=O)N[C@@H](Cc2ccc(O)cc2)C(=O)N[C@@H](CC(C)C)C(=O)N[C@H](C(=O)NCC(N)=O)CSCC(=O)N[C@@H](Cc2cc(F)c(F)c(F)c2)C(=O)N(C)[C@@H](CCC(=O)O)C(=O)N1C` [Example 10177] ({CH2CO}-[Phe(3,4,5-F3)][NMeE][NMeNle][d(cisHyp)]DV[NMeF]Y[X1]WYLCG-NH2; thioether N-13): the IC50 under setting [1] was in the range of 10 to 99.9 nM. Regarding `CCCC[C@H]1C(=O)N2C[C@H](O)C[C@@H]2C(=O)N[C@@H](CC(=O)O)C(=O)N[C@@H](C(C)C)C(=O)N(C)[C@@H](Cc2ccccc2)C(=O)N[C@@H](CCC(=O)O)C(=O)N2CCOC[C@@H]2C(=O)N[C@@H](Cc2c[nH]c3ccccc23)C(=O)N[C@@H](Cc2ccc(O)cc2)C(=O)N[C@@H](CCOC)C(=O)N[C@H](C(=O)NCC(N)=O)CSCC(=O)N[C@@H](Cc2cc(F)c(F)c(F)c2)C(=O)N(C)[C@@H](Cc2ccccc2)C(=O)N1C` [Example 10178] ({CH2CO}-[Phe(3,4,5-F3)][NMeF][NMeNle][d(cisHyp)]DV[NMeF]E[X1]WY[hSer](Me)CG-NH2; thioether N-13), the IC50 under setting [1] was in the range of 1 to 9.9 nM.

The values are drawn from patent US10538555B2, “Macrocyclic inhibitors of the PD-1/PD-L1 and CD80(B7-1)/PD-L1 protein/protein interactions” (BRISTOL-MYERS SQUIBB COMPANY, priority 2014, dated 2020).
